Where two headings read alike, the source gives them in different places.
Assays:
[1] = system: human liver cancer (HEPG2); test: In vitro cytotoxicity against HEPG2 cells; type: cell-based
Procedure: (§1) The heterocyclic compounds, prepared in this study, were evaluated according to standard protocols for their in vitro cytotoxicity against six human cancer cell lines including cells derived from human gastric cancer (NUGC), human colon cancer (DLD1), human liver cancer (HA22T and HEPG2), nasopharyngeal carcinoma (HONE1), human breast cancer (MCF) and normal fibroblast cells (WI38). For comparison purposes, CHS 828, a pyridyl cyanoguanidine, was used as a standard antitumor drug (Figure 2). […] All the synthesized compounds were tested for their cytotoxicity against normal fibroblast cells.
(§2) Fetal bovine serum (FBS) and L-glutamine, were purchased from Gibco Invitrogen Co. (Scotland, UK). RPMI-1640 medium was purchased from Cambrex (East Rutherford, NJ, USA). Dimethyl sulfoxide (DMSO), CHS 828, penicillin, streptomycin and sulforhodamine B (SRB) were purchased from Sigma Chemical Co. (Saint Louis, MO, USA).
(§3) Cell cultures were obtained from the European Collection of Cell Cultures (ECACC, Salisbury, UK) and human gastric cancer (NUGC), human colon cancer (DLD1), human liver cancer (HA22T and HEPG2), human breast cancer (MCF), nasopharyngeal carcinoma (HONE1) and normal fibroblast cells (WI38) were kindly provided by the National Cancer Institute (NCI, Cairo, Egypt). They were grown as a monolayer and routinely maintained in RPMI-1640 medium supplemented with 5% heat inactivated FBS, 2 mM glutamine and antibiotics (penicillin 100 U/mL, streptomycin 100 µg/mL) at 37 °C in a humidified atmosphere containing 5% CO2. Exponentially growing cells were obtained by plating 1.5 × 10^5 cells/mL for the six human cancer cell lines followed by 24 h of incubation. The effect of the vehicle solvent (DMSO) on the growth of these cell lines was evaluated in all the experiments by exposing untreated control cells to the maximum concentration (0.5%) of DMSO used in each assay.

[2] = system: human gastric cancer (NUGC); test: In vitro cytotoxicity against NUGC cells; type: cell-based; settings: read-out: Cytotoxicity (IC50 in nM) NUGC
Procedure: as §1, §2, §3

[3] = system: human liver cancer (HA22T); test: In vitro cytotoxicity against HA22T cells; type: cell-based; settings: read-out: Cytotoxicity (IC50 in nM) HA22T
Procedure: as §1, §2, §3

[4] = system: nasopharyngeal carcinoma (HONE1); test: In vitro cytotoxicity against HONE1 cells; type: cell-based; settings: Homo sapiens
Procedure: as §1, §2, §3

[5] = system: human colon cancer (DLD1); test: In vitro cytotoxicity against DLD1 cells; type: cell-based
Procedure: as §1, §2, §3

[6] = system: human breast cancer (MCF); test: In vitro cytotoxicity against MCF cells; type: cell-based; settings: read-out: Cytotoxicity (IC50 in nM) MCF
Procedure: as §1, §2, §3

[7] = In vitro cytotoxicity against normal fibroblast cells WI38; type: cell-based; settings: human, concentration producing 50% reduction in cell growth
Procedure: as §1, §2, §3

[8] = HEPG2, liver cancer, concentration producing 50% reduction in cell growth, read-out: Cytotoxicity (IC50 in nM) HEPG2
[9] = gastric cancer, concentration producing 50% reduction in cell growth
[10] = liver cancer, concentration producing 50% reduction in cell growth
[11] = HONE1, nasopharyngeal carcinoma, concentration producing 50% reduction in cell growth, read-out: Cytotoxicity (IC50 in nM) HONE1
[12] = DLD-1, DLDI, colon cancer, concentration producing 50% reduction in cell growth, read-out: Cytotoxicity (IC50 in nM) DLDI
[13] = MCF, breast cancer, concentration producing 50% reduction in cell growth

Compound | IC50 [1, 8] [nM] | IC50 [2, 9] [nM] | IC50 [3, 10] [nM] | IC50 [4, 11] [nM] | IC50 [5, 12] [nM] | melting point [°C] | IC50 [6, 13] [nM] | IC50 [7] [nM] | IC50 ([1]; HepG2, read-out: Cytotoxicity (IC50 in nM) HEPG2) [nM] | IC50 [2] [nM] | IC50 [3] [nM] | IC50 ([4]; HONE1, read-out: Cytotoxicity (IC50 in nM) HONE1) [nM] | IC50 ([5]; DLD-1, read-out: Cytotoxicity (IC50 in nM) DLDI) [nM] | IC50 [6] [nM]
N#CC1=C(N)NC(c2cc3ccccc3oc2=O)=C(C#N)C1c1ccc(Cl)cc1 (centres unmarked) [Compound 11c, 2-Amino-4-(4-chlorophenyl)-6-(2-oxo-2H-chromen-3-yl)-1,4-dihydropyridine-3,5-dicarbonitrile] | 424 | 1280 | 2060 | 1770 | 483 | 197 to 199 | 839 |  |  |  |  |  |  | 
Nc1cc(-c2cc3ccccc3oc2=O)nn1-c1ccccc1 [Compound 9b, 3-(5-Amino-1-phenyl-1H-pyrazol-3-yl)-2H-chromen-2-one] | 415 | 1120 | 1580 | 4270 | 2240 | 158 to 160 | 1650 |  |  |  |  |  |  | 
N#CC1=C(N)NC(c2cc3ccccc3oc2=O)=C(Br)C1c1ccc(Cl)cc1 (centres unmarked) [Compound 7c, 2-Amino-5-bromo-4-(4-chlorophenyl)-6-(2-oxo-2H-chromen-3-yl)-1,4-dihydropyridine-3-carbonitrile] | 416 | 98 | 128 | 221 | 32 | 206 to 208 | 43 |  |  |  |  |  |  | 
COc1ccc(C2C(C#N)=C(N)OC(c3cc4ccccc4oc3=O)=C2C#N)cc1 (centres unmarked) [Compound 10b, 2-Amino-4-(4-methoxyphenyl)-6-(2-oxo-2H-chromen-3-yl)-4H-pyran-3,5-dicarbonitrile] | 1320 | 1340 | 89 | 2180 | 2280 | 113 to 115 | 2120 |  |  |  |  |  |  | 
O=C(C(Br)=NNc1ccccc1)c1cc2ccccc2oc1=O [Compound 2, 2-oxo-2-(2-oxo-2H-chromen-3-yl)-N'-phenylacetohydrazonoylbromide] | 174 | 48 | 1120 | 1480 | 60 | 88 to 90 | 288 |  |  |  |  |  |  | 
COc1ccc(C2C(C#N)=C(N)NC(c3cc4ccccc4oc3=O)=C2C#N)cc1 (centres unmarked) [Compound 11b, 2-Amino-4-(4-methoxyphenyl)-6-(2-oxo-2H-chromen-3-yl)-1,4-dihydropyridine-3,5-dicarbonitrile] | 215 | 124 | 3060 | 1670 | 58 | 99 to 101 | 39 |  |  |  |  |  |  | 
Cc1ccc(-n2cc(-c3cc4ccccc4oc3=O)sc2=Nc2ccccc2)cc1 [Compound 5b, 3-(2-(Phenylimino)-3-(p-tolyl)-2,3-dihydrothiazol-5-yl)-2H-chromen-2-one] | 1300 | 2210 | 1290 | 2180 | 1070 | 99 to 101 | 1230 | 489 |  |  |  |  |  | 
N#CC(C#N)=C(CO)c1cc2ccccc2oc1=O [Compound 3, 2-(2-Hydroxy-1-(2-oxo-2H-chromen-3-yl)ethylidene)malononitrile] | 1230 | 1160 | 1650 | 699 | 1280 | 162 to 164 | 821 | 910 |  |  |  |  |  | 
N#CC1=C(N)OC(c2cc3ccccc3oc2=O)=C(C#N)C1c1ccco1 (centres unmarked) [Compound 10d, 2-Amino-4-(furan-2-yl)-6-(2-oxo-2H-chromen-3-yl)-4H-pyran-3,5-dicarbonitrile] | 3320 | 47 | 102 | 220 | 68 | 133 to 135 | 2250 |  |  |  |  |  |  | 
CCOC(=O)c1c(N)sc(Br)c1-c1cc2ccccc2oc1=O [Compound 4b, Ethyl 2-amino-5-bromo-4-(2-oxo-2H-chromen-3-yl)thiophene-3-carboxylate] | 2020 | 84 | 219 | 1210 | 167 | 177 to 179 | 1140 |  |  |  |  |  |  | 
N#CC1=C(N)OC(c2cc3ccccc3oc2=O)=C(C#N)C1c1ccc(Cl)cc1 (centres unmarked) [Compound 10c, 2-Amino-4-(4-chlorophenyl)-6-(2-oxo-2H-chromen-3-yl)-4H-pyran-3,5-dicarbonitrile] | 399 | 312 | 4170 | 89 | 193 | 178 to 180 | 584 |  |  |  |  |  |  | 
N#CC1=C(N)NC(c2cc3ccccc3oc2=O)=C(Br)C1c1ccco1 (centres unmarked) [Compound 7d, 2-Amino-5-bromo-4-(furan-2-yl)-6-(2-oxo-2H-chromen-3-yl)-1,4-dihydropyridine-3-carbonitrile] | 2730 | 682 | 52 | 1190 | 163 | 205 to 207 | 1130 |  |  |  |  |  |  | 
N#CC1=C(N)OC(c2cc3ccccc3oc2=O)=C(Br)C1c1ccccc1 (centres unmarked) [Compound 6a, 2-Amino-5-bromo-6-(2-oxo-2H-chromen-3-yl)-4-phenyl-4H-pyran-3-carbonitrile] | 59 | 1090 | 1240 | 1180 | 303 | 140 to 142 | 2180 |  |  |  |  |  |  | 
N#CN=C(NCCCCCCOc1ccc(Cl)cc1)Nc1ccncc1 [CHS 828, reference compound] |  |  |  |  |  |  |  |  | 1240 | 25 | 2070 | 15 | 2320 | 18
Nc1cc(-c2cc3ccccc3oc2=O)n[nH]1 [Compound 9a, 3-(5-Amino-1H-pyrazol-3-yl)-2H-chromen-2-one] | 359 | 3470 | 2170 | 442 | 48 | 218 to 220 | 1290 |  |  |  |  |  |  | 
N#CC1=C(N)OC(c2cc3ccccc3oc2=O)=C(Br)C1c1ccco1 (centres unmarked) [Compound 6d, 2-Amino-5-bromo-4-(furan-2-yl)-6-(2-oxo-2H-chromen-3-yl)-4H-pyran-3-carbonitrile] | 360 | 29 | 2110 | 279 | 98 | 148 to 150 | 931 |  |  |  |  |  |  | 

Reference: PMC6272230, “Uses of 3-(2-Bromoacetyl)-2H-chromen-2-one in the Synthesis of Heterocyclic Compounds Incorporating Coumarin: Synthesis, Characterization and Cytotoxicity” (Molecules, 2015)
